Data taken from patent US10308662B2, “Thienopyranones as kinase and epigenetic inhibitors” (SignalRx Pharmaceuticals, Inc., priority 2014, dated 2019).

Tests used:
[1] = tested on: SKNBE(2) neuroblastoma cell line; experiment: Cytotoxicity / proliferation study, SKNBE(2); format: cell-based; conditions: Homo sapiens, SKNBE2; SKNBE(2) cell line
[2] = tested on: NB9464 cell line; experiment: Cytotoxicity / proliferation study, NB9464; format: cell-based, murine; conditions: Mus musculus
[3] = tested on: MYCN-dependent MB patient derived xenograft (PDX) cell line; experiment: Cytotoxicity / proliferation study, PDX MB; format: cell-based; conditions: Homo sapiens
[4] = molecular target: BRD4 (Homo sapiens, UniProt O60885); experiment: BRD4 inhibition assay (region not specified); format: binding
Method: The activity of a compound of the invention as an inhibitor of a bromodomain-containing protein, such as a BET protein, such as BRD2, BRD3, BRD4, and/or BRDT, or an isoform or mutant thereof, may be determined in vitro, in vivo, or in a cell line. In vitro assays include assays that determine inhibition of bromodomain-containing proteins. Alternatively, inhibitor binding may be determined by running a competition experiment where a provided compound is incubated with a bromodomain-containing protein, such as a BET protein bound to known ligands, labeled or unlabeled. For example, bromodomain inhibition can be determined in vitro using Alpha Screen Technology (http://www.reactionbiology.com/webapps/site/NewsPDFs/Bromodomain%20Assay%20Platform%20for%20Drug%20Screening%20and%20Discovery.pdf). […] Bromodomain inhibition may also be predicted by in silico modeling as described below in the Examples.
Computational modeling was performed using the commercially available FlexX (http://www.biosolveit.de/FlexX/download/flexx_brochure.pdf) software tools. […] It should be noted that the more negative the number or value of the docking score is, the stronger is the predicted binding energy at the BRD4 site that recognizes the acetyl lysine of chromatin.

[5] = tested on: p-AKT(Ser473); experiment: Western blot of pAKT in SKNBE(2) cells; format: cell-based, human; conditions: 24 hrs treatment, 50 ng/ml IGF stimulation
Method: (§1) Cells were stimulated with 50 ng/ml IGF for 30 min and used for lysate preparation. Proteins were quantitated by the BCA protein assay (Pierce). Equal amounts of protein were resolved by polyacrylamide gels, transferred to nitrocellulose membrane and probed by Western blot with the following primary antibodies: p-AKT(Ser473), AKT (Cell Signaling Technologies), N-MYC, CyclinD1 and β-actin (Santa Cruz Biotechnology).

[6] = tested on: N-MYC; experiment: Western blot of N-MYC in SKNBE(2) cells; format: cell-based, human; conditions: 24 hrs treatment, 50 ng/ml IGF stimulation
Method: as §1

[7] = tested on: MYCN promoter region; experiment: Brd4 chromatin precipitation with quantitative PCR of MYCN promoter in SKNBE(2) cells; format: cell-based, human; conditions: 24 hours exposure
Method: MYCN amplified SKNBE(2) cells were exposed to inhibitors for 24 hours then chromatin was precipitated with Brd4 (rabbit polyclonal antibody) along with rabbit IgG as a negative control (IgG). Precipitated chromatin was analyzed for the MYCN gene (2 sites within the MYCN promoter region) by quantitative PCR and enrichment is shown as the percentage of total input DNA (FIG. 4). The negative control region primers amplify within a gene desert region approximately 1 Mb away from MYCN (MYC-N NR). Error bars represent±SEM of triplicate data. P<0.05 as compared to positive control (paired t-test).

[8] = tested on: NB9464 murine neuroblastoma tumor; experiment: NB9464 tumor growth in nude mice; format: in vivo; conditions: 50 mg/kg, 3 days a week for 1.5 weeks, intra-peritoneal
From the text: MYCN-overexpressing murine neuroblastoma cells (NB9464) were transplanted into nude mice, grown for 24 days and randomized into two groups.

[9] = tested on: Panc02 tumor cells; experiment: Orthotopic Panc02 pancreatic model of spontaneous metastasis; format: in vivo, mice; conditions: 50 mg/kg three times a week
Method: Panc02 (1×10^6) tumor cells were injected into the pancreas of WT mice (n=18). After 20 days, mice were randomized into two groups. One group was treated with DMSO (control) and the other group was treated with 50 mg/kg of SF2523, three times a week. Tumors were removed 35 days after tumor implantation. Values are mean±SEM (n=8 in each gp; P<0.01; pair wise two-sided Student's t test). […] Values are mean±SEM (n=7; P<0.01; pair wise two-sided Student's t test). The data are representative of three independent experiments performed.

[10] = tested on: N-myc (MYCN) mRNA; experiment: Real-time PCR of N-myc mRNA in IMR32 cells; format: cell-based; conditions: IMR32, 5 μM, 24 hrs
[11] = tested on: Cyclin D1 mRNA; experiment: Real-time PCR of Cyclin D1 mRNA in IMR32 cells; format: cell-based; conditions: IMR32, 5 μM, 24 hrs
[12] = tested on: B16 F10 luciferase melanoma cells; experiment: B16 melanoma mouse model of metastasis; format: in vivo, mice; conditions: 50 mg/kg every other day, 15 days
From the text: The luciferase signal was monitored every third day by injecting luciferin, until the lungs were harvested on day 15 (n=5). […] Lungs extracted from these animals are shown below the luciferase imaged pictures supporting the repression of tumor growth in Cmpd 28-treated mice.

[13] = tested on: PI3K; experiment: PI3K inhibition (isoform not given); format: biochemical
From the text: Inhibitory activity can be determined routinely using known methods and also from commercial vendors offering this service for kinases and bromodomain proteins. […] In vivo, PI3K inhibition can be determined from target tissue biopsies by standard tissue processing to disrupt cells and then performing Western Blot analysis to determine the presence or absence of pAKT (substrate of PI3K) relative to a control sample. The activity of a compound of the invention as an inhibitor of a bromodomain-containing protein, such as a BET protein, such as BRD2, BRD3, BRD4, and/or BRDT, or an isoform or mutant thereof, may be determined in vitro, in vivo, or in a cell line. In vitro assays include assays that determine inhibition of bromodomain-containing proteins. Alternatively, inhibitor binding may be determined by running a competition experiment where a provided compound is incubated with a bromodomain-containing protein, such as a BET protein bound to known ligands, labeled or unlabeled. For example, bromodomain inhibition can be determined in vitro using Alpha Screen Technology (http://www.reactionbiology.com/webapps/site/NewsPDFs/Bromodomain%20Assay%20Platform%20for%20Drug%20Screening%20and%20Discovery.pdf). […]

SMILES | IC50 [1] | IC50 [2] | IC50 [3] | BRD4 inhibition [4] | pAKT level by Western blot [5] | MYCN quantity by Western blot [6] | MYCN expression (Brd4-precipitated chromatin, MYCN promoter PCR) [7] | tolerability (body weight) [8] | tumor growth compared to vehicle [8] | spontaneous metastasis [9] | MYCN mRNA expression [10] | Cyclin D1 mRNA expression [11] | luciferase bioimaging of cancer cells [12] | reduction in metastatic nodules ([12]; lungs) | PI3K inhibition [13]
O=c1cc(N2CCOCC2)oc2c(-c3ccc4c(c3)OCCO4)csc12 [Cmpd 28] | 7.6 µM | 8.7 µM | 3.6 µM | showed activity against BRD4 regions 1 and 2 | decreased MYCN and pAKT | decreased MYCN | significantly repressed MYCN expression | well tolerated | significantly blocked tumor growth | blocks spontaneous metastasis | inhibits MYCN expression | reducing mRNA expression | little evidence of the presence of cancer cells | 60% | –
Cc1sc2c(c1C)C(c1ccc(Cl)cc1)=N[C@@H](CC(=O)OC(C)(C)C)c1nnc(C)n1-2 [JQ-1] | – | – | – | – | – | inhibited only MYCN quantities | significantly repressed MYCN expression | – | – | – | – | – | – | – | does not inhibit PI3K
